{"source": "patent US7605156B2", "about": "“Methods for the use of inhibitors of cytosolic phospholipase A2” (Wyeth, priority 2001, dated 2009)", "molecular_target": "T1, cPLA2 (Homo sapiens, UniProt P47712)", "T1 sequence (P47712 1-749)": "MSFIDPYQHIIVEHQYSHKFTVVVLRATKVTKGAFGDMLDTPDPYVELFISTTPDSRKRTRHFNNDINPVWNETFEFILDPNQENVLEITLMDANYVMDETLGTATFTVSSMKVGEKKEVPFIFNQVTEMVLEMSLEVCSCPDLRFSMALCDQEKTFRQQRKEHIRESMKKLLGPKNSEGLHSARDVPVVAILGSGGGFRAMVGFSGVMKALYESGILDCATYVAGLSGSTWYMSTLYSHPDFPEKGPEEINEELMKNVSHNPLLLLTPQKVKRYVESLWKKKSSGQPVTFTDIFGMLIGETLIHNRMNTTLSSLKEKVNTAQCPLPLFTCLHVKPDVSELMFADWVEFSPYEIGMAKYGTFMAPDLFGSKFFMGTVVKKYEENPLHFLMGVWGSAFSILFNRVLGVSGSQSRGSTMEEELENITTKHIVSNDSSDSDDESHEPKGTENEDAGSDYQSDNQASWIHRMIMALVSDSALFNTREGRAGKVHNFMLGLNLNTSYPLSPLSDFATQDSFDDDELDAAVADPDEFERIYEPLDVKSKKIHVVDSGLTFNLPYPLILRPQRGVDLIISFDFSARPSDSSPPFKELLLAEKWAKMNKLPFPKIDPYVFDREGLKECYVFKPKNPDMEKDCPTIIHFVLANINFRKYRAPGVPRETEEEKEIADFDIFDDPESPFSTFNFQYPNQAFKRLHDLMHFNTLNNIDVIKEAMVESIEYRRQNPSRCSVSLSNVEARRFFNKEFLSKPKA", "test": "Coumarine assay (hydrolysis of 7-hydroxycoumarinyl 6-heptenoate)", "type": "biochemical", "settings": "60 μM 7-hydroxycoumarinyl 6-heptenoate, pH 7.5; read-out: Coumarin IC50"}
{"molecule": "Cc1cccc(C)c1S(=O)(=O)NCCc1c(CCOc2ccc(C(=O)O)cc2)c2cc(Cl)ccc2n1C(c1ccccc1)c1ccccc1", "note": "[Example 271, 4-{2-[1-benzhydryl-5-chloro-2-(2-{[(2,6-dimethylphenyl)sulfonyl]amino}ethyl)-1H-indol-3-yl]ethoxy}benzoic acid]", "values": [{"measurement": "IC50", "result": 150, "unit": "nM"}]}
{"molecule": "O=C(O)c1ccc(OCCc2c(CCNS(=O)(=O)c3ccccc3Cl)n(C(c3ccccc3)c3ccccc3)c3ccc(Cl)cc23)cc1F", "note": "[Example 190, 4-(2-{1-Benzhydryl-5-chloro-2-[2-(2-chloro-benzenesulfonylamino)-ethyl]-1H-indol-3-yl}-ethoxy)-2-fluoro-benzoic acid]", "values": [{"measurement": "IC50", "result": 530, "unit": "nM"}]}
{"molecule": "O=C(O)c1ccc(CCCc2c(CCNS(=O)(=O)Cc3ccc(Cl)cc3)n(C(c3ccccc3)c3ccccc3)c3ccc(Cl)cc23)cc1", "note": "[Example 60, 4-{3-[1-benzhydryl-5-chloro-2-(2-{[(4-chlorobenzyl)sulfonyl]amino}ethyl)-1H-indol-3-yl]propyl}benzoic acid]", "values": [{"measurement": "IC50", "result": 150, "unit": "nM"}]}
{"molecule": "O=C(O)c1ccc(OCCc2c(CCNS(=O)(=O)c3c(F)cccc3C(F)(F)F)n(C(c3ccccc3)c3ccccc3)c3ccc(Cl)cc23)cc1", "note": "[Example 269]", "values": [{"measurement": "IC50", "result": 150, "unit": "nM"}]}
{"molecule": "O=C(O)c1ccc(OCCc2c(CCNS(=O)(=O)c3ccc(C(F)(F)F)cc3)n(C(c3ccccc3)c3ccccc3)c3ccc(Cl)cc23)cc1", "note": "[Example 229, 4-(2-{1-benzhydryl-5-chloro-2-[2-({[4-(trifluoromethyl)phenyl]sulfonyl}amino)ethyl]-1H-indol-3-yl}ethoxy)benzoic acid]", "values": [{"measurement": "IC50", "result": 500, "unit": "nM"}]}
{"molecule": "O=C(O)c1ccc(CCCc2c(CCNS(=O)(=O)c3ccccc3Cl)n(C(c3ccccc3)c3ccccc3)c3ccc(Cl)cc23)cc1", "note": "[Example 254, 4-{3-[1-benzhydryl-5-chloro-2-(2-{[(2-chlorophenyl)sulfonyl]amino}ethyl)-1H-indol-3-yl]propyl}benzoic acid]", "values": [{"measurement": "IC50", "result": 260, "unit": "nM"}]}
{"molecule": "O=C(O)c1ccc(OCCc2c(CCNS(=O)(=O)Cc3cccc(C(F)(F)F)c3)n(C(c3ccccc3)c3ccccc3)c3ccc(Cl)cc23)cc1", "note": "[Example 47, 4-(2-{1-benzhydryl-5-chloro-2-[2-({[3-(trifluoromethyl)benzyl]sulfonyl}amino)ethyl]-1H-indol-3-yl}ethoxy)benzoic acid]", "values": [{"measurement": "IC50", "result": 580, "unit": "nM"}]}
{"molecule": "CS(=O)(=O)c1ccc(S(=O)(=O)NCCc2c(CCCc3ccc(C(=O)O)cc3)c3cc(Cl)ccc3n2C(c2ccccc2)c2ccccc2)cc1", "note": "[Example 202, 4-(3-{1-Benzhydryl-5-chloro-2-{2-({[4-(methysulfonyl)phenyl]sulfonyl}amino)ethyl]-1H-indol-3-yl}propyl)benzoic acid]", "values": [{"measurement": "IC50", "result": 300, "unit": "nM"}]}
{"molecule": "CSc1ccccc1S(=O)(=O)NCCc1c(CCCc2ccc(C(=O)O)cc2)c2cc(Cl)ccc2n1C(c1ccccc1)c1ccccc1", "note": "[Example 238]", "values": [{"measurement": "IC50", "result": 250, "unit": "nM"}]}
{"molecule": "O=C(O)c1ccc(OCCc2c(CCNS(=O)(=O)CSc3ccc(F)cc3F)n(C(c3ccccc3)c3ccccc3)c3ccc(Cl)cc23)cc1", "note": "[Example 288, 4-[2-(1-benzhydryl-5-chloro-2-{2-[({[(2,4-difluorophenyl)thio]methyl}sulfonyl)amino]ethyl}-1H-indol-3-yl)ethoxy]benzoic acid]", "values": [{"measurement": "IC50", "result": 400, "unit": "nM"}]}
{"molecule": "O=C(O)c1ccc(OCCc2c(CCNS(=O)(=O)c3ccccc3OC(F)(F)F)n(C(c3ccccc3)c3ccccc3)c3ccc(Cl)cc23)cc1", "note": "[Example 231]", "values": [{"measurement": "IC50", "result": 250, "unit": "nM"}]}
{"molecule": "Cc1nc(S(=O)(=O)NCCc2c(CCOc3ccc(C(=O)O)cc3)c3cc(Cl)ccc3n2C(c2ccccc2)c2ccccc2)cn1C", "note": "[Example 258, 4-{2-[1-benzhydryl-5-chloro-2-(2-{[(1,2-dimethyl-1H-imidazol-4-yl)sulfonyl]amino}ethyl)-1H-indol-3-yl]ethoxy}benzoic acid]", "values": [{"measurement": "IC50", "result": 800, "unit": "nM"}]}
{"molecule": "O=C(O)c1ccc(CCCc2c(CCNS(=O)(=O)c3ccc(Cl)cc3Cl)n(C(c3ccccc3)c3ccccc3)c3ccc(Cl)cc23)cc1", "note": "[Example 152, 4-{3-[1-benzhydryl-5-chloro-2-(2-{[(2,4-dichlorophenyl)sulfonyl]-amino}ethyl)-1H-indol-3-yl]propyl}benzoic acid]", "values": [{"measurement": "IC50", "result": 320, "unit": "nM"}]}
{"molecule": "4-[2-(1-benzhydryl-5-chloro-2-{2-[({2-[(3R,5S)-3,5-dimethylmorpholin-4-yl]ethyl}sulfonyl)amino]ethyl}-1H-indol-3-yl)ethoxy]benzoic acid [Example 250]", "values": [{"measurement": "IC50", "result": 2100, "unit": "nM"}]}
{"molecule": "O=C(O)c1ccc(CCCc2c(CCNS(=O)(=O)c3c(F)cccc3C(F)(F)F)n(C(c3ccccc3)c3ccccc3)c3ccc(Cl)cc23)cc1", "note": "[Example 268, 4-(3-{1-benzhydryl-5-chloro-2-[2-({[2-fluoro-6-(trifluoromethyl)phenyl]sulfonyl}amino)ethyl]-1H-indol-3-yl}propyl)benzoic acid]", "values": [{"measurement": "IC50", "result": 90, "unit": "nM"}]}
{"molecule": "Cc1nc(-c2ccc(S(=O)(=O)NCCc3c(CCCc4ccc(C(=O)O)cc4)c4cc(Cl)ccc4n3C(c3ccccc3)c3ccccc3)s2)cs1", "note": "[Example 176, 4-(3-{1-benzhydryl-5-chloro-2-[2-({[5-(2-methyl-1,3-thiazol-4-yl)thien-2-yl]sulfonyl}amino)ethyl]-1H-indol-3-yl}propyl)benzoic acid]", "values": [{"measurement": "IC50", "result": 400, "unit": "nM"}]}
{"molecule": "O=C(O)c1ccc(CCCc2c(CCNS(=O)(=O)c3c(Cl)cccc3Cl)n(C(c3ccccc3)c3ccccc3)c3ccc(Cl)cc23)cc1", "note": "[Example 153, 4-{3-[1-benzhydryl-5-chloro-2-(2-{[(2,6-dichlorophenyl)sulfonyl]amino}ethyl)-1H-indol-3-yl]propyl}benzoic acid]", "values": [{"measurement": "IC50", "result": 160, "unit": "nM"}]}
{"molecule": "O=C(O)CCc1ccc(S(=O)(=O)CCc2c(CCNS(=O)(=O)Cc3ccccc3)n(C(c3ccccc3)c3ccccc3)c3ccc(Cl)cc23)cc1", "note": "[Example 130, 3-(4-{[2-(1-Benzhydryl-2-{2-[(benzylsulfonyl)amino]ethyl}-5-chloro-1H-indol-3-yl)ethyl]sulfonyl}phenyl)propanoic acid]", "values": [{"measurement": "IC50", "result": 170, "unit": "nM"}]}
{"molecule": "O=C(O)c1ccc(CCCc2c(CCNS(=O)(=O)C3CC3)n(C(c3ccccc3)c3ccccc3)c3ccc(Cl)cc23)cc1", "note": "[Example 280, 4-[3-(1-benzhydryl-5-chloro-2-{2-[(cyclopropylsulfonyl)amino]-ethyl}-1H-indol-3-yl)propyl]benzoic acid]", "values": [{"measurement": "IC50", "result": 350, "unit": "nM"}]}
{"molecule": "O=C(O)c1ccc(OCCc2c(CCNS(=O)(=O)c3ccccc3F)n(C(c3ccccc3)c3ccccc3)c3ccc(Cl)cc23)cc1", "note": "[Example 223]", "values": [{"measurement": "IC50", "result": 600, "unit": "nM"}]}
{"molecule": "O=C(O)c1ccc(CCCc2c(CCNS(=O)(=O)Cc3ccccc3[N+](=O)[O-])n(C(c3ccccc3)c3ccccc3)c3ccc(Cl)cc23)cc1", "note": "[Example 56, 4-{3-[5-Chloro-1-(diphenylmethyl)-2-(2-{[(2-nitrobenzyl)sulfonyl]amino}ethyl)-1H-indol-3-yl]propyl}benzoic acid]", "values": [{"measurement": "IC50", "result": 130, "unit": "nM"}]}
{"molecule": "O=C(O)c1ccc(OCCc2c(CCNS(=O)(=O)CCN3C[C@@H]4C[C@H]3CO4)n(C(c3ccccc3)c3ccccc3)c3ccc(Cl)cc23)cc1", "note": "[Example 251]", "values": [{"measurement": "IC50", "result": 1500, "unit": "nM"}]}
{"molecule": "COc1ccc(S(=O)(=O)NCCc2c(CCCc3ccc(C(=O)O)cc3)c3cc(Cl)ccc3n2C(c2ccccc2)c2ccccc2)c([N+](=O)[O-])c1", "note": "[Example 200, 4-(3-{1-Benzhydryl-5-chloro-2-[2-(4-methoxy-2-nitro-benzenesulfonylamino)-ethyl]-1H-indol-3-yl}-propyl)-benzoic acid]", "values": [{"measurement": "IC50", "result": 350, "unit": "nM"}]}
{"molecule": "Cc1nn(C)c(C)c1S(=O)(=O)NCCc1c(CCOc2ccc(C(=O)O)cc2)c2cc(Cl)ccc2n1C(c1ccccc1)c1ccccc1", "note": "[Example 213, 4-{2-[1-benzhydryl-5-chloro-2-(2-{[(1,3,5-trimethyl-1H-pyrazol-4-yl)sulfonyl]amino}ethyl)-1H-indol-3-yl]ethoxy}benzoic acid]", "values": [{"measurement": "IC50", "result": 450, "unit": "nM"}]}
{"molecule": "O=C(O)c1ccc(CCCc2c(CCNS(=O)(=O)c3cc(F)c(Cl)cc3F)n(C(c3ccccc3)c3ccccc3)c3ccc(Cl)cc23)cc1", "note": "[Example 168, 4-{3-[1-benzhydryl-5-chloro-2-(2-{[(4-chloro-2,5-difluorophenyl)sulfonyl]amino}ethyl)-1H-indol-3-yl]propyl}benzoic acid]", "values": [{"measurement": "IC50", "result": 270, "unit": "nM"}]}
{"molecule": "Cc1c(S(=O)(=O)NCCc2c(CCCc3ccc(C(=O)O)cc3)c3cc(Cl)ccc3n2C(c2ccccc2)c2ccccc2)cnn1-c1ccccc1", "note": "[Example 210, 4-{3-[1-benzhydryl-5-chloro-2-(2-{[(5-methyl-1-phenyl-1H-pyrazol-4-yl)sulfonyl]amino}ethyl)-1H-indol-3-yl]propyl}benzoic acid]", "values": [{"measurement": "IC50", "result": 150, "unit": "nM"}]}
{"molecule": "Cc1c(S(=O)(=O)NCCc2c(CCOc3ccc(C(=O)O)cc3)c3cc(Cl)ccc3n2C(c2ccccc2)c2ccccc2)cnn1-c1ccccc1", "note": "[Example 211, 4-{2-[1-benzhydryl-5-chloro-2-(2-{[(5-methyl-1-phenyl-1H-pyrazol-4-yl)sulfonyl]amino}ethyl)-1H-indol-3-yl]ethoxy}benzoic acid]", "values": [{"measurement": "IC50", "result": 400, "unit": "nM"}]}
{"molecule": "O=C(O)c1ccc(OCCc2c(CCNS(=O)(=O)c3cccc4nonc34)n(C(c3ccccc3)c3ccccc3)c3ccc(Cl)cc23)cc1", "note": "[Example 182, 4-(2-{1-Benzhydryl-2-[2-(benzo[1,2,5]oxadiazole-4-sulfonylamino)-ethyl]-5-chloro-1H-indol-3-yl}-ethoxy)benzoic acid]", "values": [{"measurement": "IC50", "result": 600, "unit": "nM"}]}
